From ChEMBL document CHEMBL6182934, “Photo-clenbuterol: Optical Control of β2-Adrenergic Receptor Signaling by Photoswitchable Ligand Efficacy” (J Med Chem, 2025)

Test: Photothermal stability of compound in HBSS buffer assessed as thermal relaxation half life measured after pre-illumination of compound to reach cis-isomer
Type: physicochemical

half-life | Structure (SMILES)
11 days | CC(C)(C)NCC(O)c1cc(Cl)c(/N=N/c2ccccc2)c(C#N)c1 (racemic)
112 days | CC(C)(C)NCC(O)c1cc(Cl)c(/N=N/c2ccccc2)c(Cl)c1 (racemic)
26 days | CC(C)(C)NCC(O)c1cc(Cl)c(/N=N/c2c(Cl)cccc2Cl)c(Cl)c1 (racemic)
29 days | CC(C)(C)NCC(O)c1ccc(/N=N/c2ccccc2)cc1 (racemic)
38 days | CC(C)(C)NCC(O)c1ccc(/N=N/c2ccccc2)c(Cl)c1 (racemic)
